Measured values as given in patent US20160089464A1, “MALODOR REDUCTION COMPOSITIONS” (The Procter & Gamble Company, priority 2014, published 2016).

Assay: Comment Code material properties: vapor pressure, ClogP, probability of ingredient color instability, odor detection threshold, melamine formaldehyde PMC headspace response ratio and leakage, liquid dish neat product liquid-air partition coefficient
Assay type: physicochemical
[1] = cell strings several class symbols together, each letter is one property class of L1
[2] = Table 1 materials, each letter of the code is one property class (vapor pressure, ClogP, color instability, odor detection threshold, PMC headspace ratio, PMC leakage, liquid dish liquid-air partition coefficient)
[3] = letter codes A-L: vapor pressure, ClogP, probability of ingredient color instability, odor detection threshold, PMC headspace response ratio, PMC leakage, liquid dish liquid-air partition coefficient, Table 1 materials with at least one MORV from 1 to 5

| Comment Code [1] | Comment Code [2] | Comment Code [3] | Compound |
| --- | --- | --- | --- |
| – | BDFHIJKL | – | CC1=CCCC(C)(C)C12CCC(C)O2 (stereo not drawn) [Material 1057] |
| ADEFHIJKL | – | – | CCOC(=O)[C@@H]1[C@@H](C)CCCC1(C)C [Material 1058] |
| – | BDEFHIJKL | – | CC1CCC(C(C)(C)S)C(=O)C1 (stereo not drawn) [Material 1059] |
| BDEFGJKL | BDEFGJKL | – | CC1=CCC2(C)CCCC(C)(C)C23CC13 (stereo not drawn) [Material 1060] |
| ACGIJKL | – | – | CC(C)(C)[C@@H]1CCCC[C@H]1O [Material 1071] |
| ACGIJKL | – | – | C=C(C)[C@@H]1CC[C@@H](C)C(=O)C1 [Material 1081] |
| – | CEFHJ | – | CC(C)(C)c1ccc2c(c1)OCC(=O)CO2 [Material 1085] |
| – | DHJK | – | CC(=O)C1CC/C(C)=C\CC/C(C)=C\C/C=C/1C (stereo not drawn) [Material 1095] |
| – | DEFHJK | – | CC1CC=CCCCCCCCC(=O)OCC1 (stereo not drawn) [Material 1099] |
| – | BDEFHJK | – | C=C(C)[C@@H]1CCC2=CCC[C@@H](C)[C@]2(C)C1 [Material 1105] |
| DEFHJK | DEFHJK | – | C[C@@H]1CCC=C2CC[C@@H](C(C)(C)O)C[C@]21C [Material 1107] |
| ACEFGIJKL | – | – | CC1=CC(=O)[C@@H]2C[C@H]1C2(C)C [Material 1119] |
| ACGIJKL | – | – | CC(C)(C)C1CCCCC1O (stereo not drawn) [Material 1122] |
| DHJK | – | DHJK | CC(=O)C1=C(C)[C@@H]2C[C@@]3(C1)[C@H](C)CC[C@H]3C2(C)C [Material 1129] |
| DEFGJKL | – | DEFGJKL | C1CC2C3CC(C2C1)C1(CCCO1)C3 (stereo not drawn) [Material 1137] |
| – | – | BCHJKL | COC(=O)OC1CC/C=C\CCC1 (stereo not drawn) [Material 1139] |
| DEFHJK | – | DEFHJK | C[C@H]1[C@@H]2C[C@H](C[C@@]13C=CC(=O)CC3)C2(C)C [Material 1143] |
| DEFHJK | – | DEFHJK | CC1(C)C2CCC3(C2)C1C1(CCC3(C)C)OCCO1 (stereo not drawn) [Material 1144] |
| – | – | DEFHJK | CC1(C)C2CCC3(C2)C1C1(CCC3(C)C)OCCO1 (stereo not drawn) [Material 1145] |
| – | – | DEFHJKL | CC1=CC2=C(C(C)C)CC[C@@H](C)[C@H]2CC1 [Material 1147] |

Second part, the compound before the results:

| Compound | Comment Code [1] | Comment Code [2] | Comment Code [3] |
| --- | --- | --- | --- |
| CCC(C)(CCCC(C)C)OC(C)=O (stereo not drawn) [Material 1055] | ADEFHJKL | – | – |
| COc1cc(C)ccc1C(C)C [Material 1062] | – | ADHIJKL | – |
| CCCC(O)CCC1C(C)CCCC1(C)C (stereo not drawn) [Material 1063] | – | DEFHJK | – |
| CCCC/C=C/C=C/C=O [Material 1064] | – | ACHKL | – |
| CC(C)=CCC/C(C)=C/CC/C(C)=C/CO [Material 1065] | – | DEFHJK | – |
| CC/C=C\CC/C=C/C=O [Material 1066] | – | ACHKL | – |
| CCCCCCC/C=C/C=O [Material 1067] | – | ADHKL | – |
| CCC/C=C/CO [Material 1069] | ACEFHIKL | – | – |
| CCCCCC/C=C/C=O [Material 1070] | – | ADHKL | – |
| CC/C=C\C/C=C/CCO [Material 1072] | – | ACEFHK | – |
| CCCCC/C=C/CCC=O [Material 1073] | – | ADHKL | – |
| CC=CC(=O)C1C(C)=CCCC1(C)C (stereo not drawn) [Material 1074] | BDHIJK | – | – |
| C=C/C(C)=C/CC=C(C)C [Material 1077] | – | ADGIKL | – |
| CC(C)=CCC/C(C)=C/CO [Material 1082] | – | BCHIK | – |
| CCCCCC1C(=O)CCC1CC(=O)OC (stereo not drawn) [Material 1083] | – | DFHJK | – |
| C/C=C/c1ccc(O)c(OC)c1 [Material 1084] | CEFHIK | – | – |
| CC(=O)OC(c1ccccc1)C(Cl)(Cl)Cl (stereo not drawn) [Material 1088] | BDEFGJ | – | – |
| CCCCCCCCCCCCCO [Material 1090] | – | DEFGJK | – |
| CCOC(=O)CC(O)(CC(=O)OCC)C(=O)OCC [Material 1091] | – | CEFGJ | – |
| COC(=O)c1ccccc1NC(O)CC(C)c1ccccc1 (stereo not drawn) [Material 1093] | – | DFHJ | – |
| CC1CC2CCC3C(C2O1)C(C)(C)C(C)C3(C)C (stereo not drawn) [Material 1097] | DEFHJK | BDEFHJK | – |

| Compound | Comment Code [1] | Comment Code [2] | Comment Code [3] |
| --- | --- | --- | --- |
| CCCC(C)(S)CO (stereo not drawn) [Material 1098] | ACEFHIJKL | – | – |
| CCCCCCCCCCC=O [Material 1102] | – | BDHJK | – |
| CCC=C(C)C(O)CCCCC (stereo not drawn) [Material 1104] | – | BDEFHIJK | – |
| COc1cc(C=O)ccc1OC(=O)C(C)C [Material 1111] | – | CHJ | – |
| CC=Cc1ccc(OCC)c(O)c1 [Material 1112] | CEFHK | – | – |
| COCc1ccc(O)c(OC)c1 [Material 1113] | – | – | CGIK |
| CCCCCC1(C)CCC(C)(C)C1=O (stereo not drawn) [Material 1115] | BDFGIJKL | – | – |
| CC(C=O)=CCC1C(C)=CCCC1(C)C (stereo not drawn) [Material 1116] | – | – | BDFHJK |
| COC(=O)c1c(C)cc(O)c(C)c1O [Material 1117] | – | – | CGIJ |
| COc1ccc(C=O)cc1OC [Material 1118] | BCGIK | – | – |
| COC1C=CC2C3CCC(C3)C12 (stereo not drawn) [Material 1120] | – | – | ACEFHJKL |
| COC(=O)c1ccccc1N=CC(C)Cc1ccc(C(C)(C)C)cc1 (stereo not drawn) [Material 1121] | – | – | DFHJ |
| CCC=CCCOC(=O)C(C)C [Material 1125] | – | – | ADEFHJKL |
| CC1CC(C)(c2ccccc2)OC(C)O1 (stereo not drawn) [Material 1126] | – | – | BCFHJK |
| COC(=O)c1ccccc1/N=C\C1CCC(C)=CC1C (stereo not drawn) [Material 1131] | DEFHJ | – | DEFHJ |
| CC(=O)OC(C)CC(C)(C)c1ccccc1 (stereo not drawn) [Material 1134] | BDFHJK | – | – |
| CC/C=C/CC/C=C\C#N [Material 1138] | – | – | ACEFHKL |
| C[C@@H]1CC[C@H]2[C@@H]1[C@H]1[C@@H](CC[C@]2(C)O)C1(C)C [Material 1140] | DEFHJK | – | DEFHJK |
| C=C(C)COCC/C=C\CC [Material 1141] | ADEFHKL | – | – |
| Cc1cc2c(cc1C#N)C(C)(C)C(C)C(C)C2(C)C (stereo not drawn) [Material 1142] | DHJ | – | DHJ |
| COc1cc(CCC(C)=O)ccc1O [Material 1146] | – | – | CEFGJ |
